From patent publication US9289003B2, “Use of compounds involved in biosynthesis of nucleic acids as cryoprotective agents” (CHR. HANSEN A/S, priority 2003, dated 2016)
Entries after “also recorded” stand apart in the source; their conditions may differ.

Columns and labels:
[1] = test system: F-DVS™ Fl-Da N (frozen LD-culture); test: Acidifying activity assay of frozen concentrated F-DVS Fl-Da N culture stored at −50° C; assay type: cell-based; conditions: 3% w/w additive; for reduction in stability of culture without additive relative to culture stabilized by additive / loss of acidification activity of culture without additive: 13 days at −50° C; for reduction in stability of culture without additive relative to culture stabilized by additive: 0.01% inoculum, pH after 6 hrs at 30° C; for loss of acidification activity of culture without additive: corresponds to the pH difference; for ranking as cryoprotective during prolonged storage: storage extended to 21 or 49 days at −50° C
Protocol: In this example the stability measured by the acidification activity of a commercially produced LD-culture: F-DVS™ FI-Da N (Chr. Hansen A/S Item. No. 501691) was followed over a period of 6 months. The culture was produced and stored at −50° C. as described in the Materials and Methods section.
In contrast to what is common the first activity-measurement in this example was performed immediately after the culture were frozen as pellets in liquid nitrogen and followed by measurements after 1, 2, 12, 20 and 188 days of storage at −50° C.
(§1) The additive was added to the concentrate as a 30% sterile solution.
To simulate a situation similar to the industrial situation during the freezing process the additives and concentrates were mixed and stored for 5 hours at 8° C. and subsequently frozen in liquid nitrogen and further stored at −50° C. […] Culture activity in milk (LAB-milk) was measured the same day as the frozen cultures were formulated.
Culture activity in milk (LAB-milk) was measured the same day as the cultures were frozen and the activity was followed periodically up to 13 days.
Experimental details were as described in Example 10, with the exception that the activity was monitored for an extended period of time.

[2] = test system: freeze-dried LD-culture of Fl-Da N; test: Acidifying activity assay of freeze-dried Fl-Da N culture (FD-DVS); assay type: cell-based; conditions: 3% w/w additive, 0.005% inoculum
Protocol: Frozen culture was inoculated on a 0.01% (w/w) level in 200 ml UHT-sterilized reconstituted skimmed milk (RSM) containing 9.5% (w/w) solid matter and heated at 99° C. for 30 minutes (LAB-milk). The RSM was incubated at 30° C. for 6 h to permit acidification of the substrate material. The acidification activity was measured as described in Example 6: Analytical Procedure QAm-052, “acidification activity—UHT”, Chr. Hansen A/S (Denmark).
as §1
To simulate the situation encountered in the industrial situation during a freezing process, the additives and concentrates were mixed and stored for 5 hours at 8° C. and subsequently frozen in liquid nitrogen and further stored at −50° C. for one day before freeze-drying. After freeze-drying was completed the culture was stored at −50° C. until analysis. […] Culture activity in milk (LAB-rnilk) was measured after 7 days of storage at −50° C.
This example describes the stability of freeze-dried LDultures (FD-DVS) of Fl-Da-N formulated with and without a number of different additives, which may act as cryprotective agents. In the experiments the.concentration of the various additives were 3% w/w per gram concentrated biomass unless other vice indicated in the figures.
After fermentation, biomass was harvested and concentrated via centrifugation from fermentation broth of Fl-Da N as described in the Materials and Method section. The cell concentrate was divided into a number of portions and was added to each of the portions. To simulate the situation encountered in the industrial situation during a freezing process, the additives and concentrates were mixed and stored for 5 hours at 8° C. and subsequently frozen in liquid nitrogen and further stored at −50° C. for one day before freezedrying. After freeze-drying was completed the culture was stored at −50° C. until analysis. […] Culture activity in milk (LAB-milk) was measured by the acidifying activity assay after 1 day and after 2 months of storage at −50° C.

[3] = test system: bacterial cultures; test: Cryoprotection of bacterial cultures, summary statements of the description; assay type: cell-based; conditions: summary of the experiments (examples 12 and 15 cited for adenosine)
[4] = test system: F-DVS™ CH-N 19 (frozen LD-culture); test: Acidifying activity assay of frozen concentrated F-DVS CH-N 19 culture; assay type: cell-based; conditions: Example 15; 1 day and 6 days at −50° C; 0,005% w/v inoculum, 6 hrs at 30° C; Na-formate 3% w/w
Protocol: The additives and concentrates were mixed for 30 minutes and subsequently 150 g of the two portions was frozen in liquid nitrogen. […] Culture activity in milk (heat sterilized LAB-milk) was measured.
The concentration of the various additives is given in the figures as % w/w per gram concentrated biomass.
Culture activity in milk (LAB-milk) was measured as acidification activity after 1 day (FIG. 13) and 6 days (FIG. 14) of storage at −50° C. The activity assay is based on a 0,005% w/v inoculum and 6 hrs incubation at 30° C.

[5] = test system: liquid lactic acid-bacterial starter culture concentrates; conditions: 3% Na-formate; cited from earlier work

## OC[C@H]1O[C@@H](n2cnc3c(O)ncnc32)[C@H](O)[C@@H]1O [Inosine, inosine]
[1]
  reduction in stability of culture without additive relative to culture stabilized by additive: 0.41 pH units
  loss of acidification activity of culture without additive: 60%
  ranking as cryoprotective during prolonged storage: better cryoprotective of F-DVS™ FI-Da N than GMP
[2]; one day of storage at −50° C
  effect on stability of freeze-dried culture: highly efficient to ensure stability of the culture
[3]
  effectiveness as cryoprotective agent: very effective as a cryoprotective agent

## Nc1ncnc2c1ncn2[C@@H]1O[C@H](COP(=O)(O)O)[C@@H](O)[C@H]1O [AMP, adenosine-5′-monophosphate]
[4]
  effect on activity/stability of frozen culture: harmful to the activity of the culture
[3]
  effectiveness as cryoprotective agent: but not AMP is effective as a cryoprotective agent

## Nc1ncnc2c1ncn2[C@@H]1O[C@H](CO)[C@@H](O)[C@H]1O [adenosine, reference compound]
[4]
  effect on activity/stability of frozen culture: harmful to the activity of the culture
[2]; 2 months of storage at −50° C
  effect on stability of freeze-dried culture: harmful to the culture
[2]; one day of storage at −50° C
  effect on stability of freeze-dried culture: highly efficient to ensure stability of the culture
[3]
  effectiveness as cryoprotective agent: appears to decrease the stability of bacterial cultures

## Nc1nc2c(ncn2[C@@H]2O[C@H](COP(=O)(O)O)[C@@H](O)[C@H]2O)c(=O)[nH]1 [GMP, guanosine-5′-monophosphate]
[1]
  reduction in stability of culture without additive relative to culture stabilized by additive: 0,31 pH units
  loss of acidification activity of culture without additive: 50%
  ranking as cryoprotective during prolonged storage: better that IMP

## O=c1ccn([C@@H]2O[C@H](COP(=O)(O)O)[C@@H](O)[C@H]2O)c(=O)[nH]1 [UMP, uranosine-5′-monophosphate]
[2]; 2 months of storage at −50° C
  effect on stability of freeze-dried culture: preferred

## Nc1ccn([C@@H]2O[C@H](COP(=O)(O)O)[C@@H](O)[C@H]2O)c(=O)n1 [CMP, cytidine-5′-monophosphate]
[2]; 2 months of storage at −50° C
  effect on stability of freeze-dried culture: preferred

## O=C[O-].[Na+] [Na-formate]
[4]
  effect on activity/stability of frozen culture: detrimental for frozen cultures; also recorded: detrimental to the activity of frozen cultures; also recorded: decrease the storage stability of frozen lactic acid bacterial starter culture
[5]
  effect on storage stability of liquid starter culture concentrates: effective to increase the storage stability of liquid lactic acid-bacterial starter culture concentrates
